Data reported in patent US20060264497A1, “Diindolylmethane-based compositions and methods of use thereof for promoting oral mucosal and bone health” (priority 2005, published 2006).
Marks after values point to notes of the source that are not given here.

What was measured:
[1] = Dissolution of DIM containing particles (release rate profile); format: physicochemical; conditions: pH 6.8 phosphate buffer, 0.5% Tween 80, 37° C., 50 rpm
Protocol: Testing of Dissolution of DIM Containing Particles: In order to determine the release rate profiles of DIM from matrix, particle formulations, a test using pH 6.8 phosphate buffer system containing 0.5% Tween 80 was utilized. The procedure included dissolving an amount of spray dried particles containing a known amount of DIM in a standard dissolution apparatus with standard simulated saliva solution. For the following testing, 900 ml of stock pH 6.8 buffer solution was placed into a round bottom beaker in the dissolution test apparatus. To the solution, 5 g of Tween 80 (Sorbitan Monooleate) was added and mixed while bringing to a temperature of 37° C. To this, 600 mg of a test sample with known DIM content was added to the solution and stirred at 50 rpm. At timed intervals 3.0 ml aliquots of solution was removed and filtered through 0.22 um filter. The absorption of the sample was read at 283 nm on an […], blanking vs. pH 6.8 buffer containing 0.5% Tween 80. The percent released DIM compared to the 100% complete, theoretical level was calculated.

[2] = tested on: osteoclasts in metaphyseal bone; experiment: Bone histomorphometry: osteoclast number after one year feeding of DIM or I3C; format: in vivo, rats; conditions: 1 year; for Osteoclast Cell Number in Metaphyseal Bone: DIM 20 mg/kg/day (BioResponse-DIM), I3C 50 mg/kg/day in diet
Protocol: A one year study was conducted including evaluation of the impact of chronic feeding of DIM and I3C versus control diet in rats. The study used a dose of 20 mg/kg/day DIM, formulated for increased absorption (BioResponse-DIM, BioResponse, Boulder, Colo. [Example 1]), and 50 mg/kg/day Indole-3-Carbinol (I3C) (Sigma Chemical, St. Louis, Mo.). Bone histomorphometry was performed comparing metaphyseal bone in male and female animals using established techiques (Huffer W E, Ruegg P, Zhu J M, Lepoff R B., Semiautomated methods for cancellous bone histomorphometry using a general-purpose video image analysis system. J Microsc. 1994 January; 173 (Pt 1):53-66). Counts of osteoclast number, averaged for male and female groups are summarized in the following chart: […]

rat bone osteoclasts = conditions: Gao and Yamaguchi 1999; cited from earlier work
[3] = cited from earlier work
[4] = Case report: DIM treatment of a subject with rheumatoid arthritis and gingivitis; format: in vivo, human; conditions: oral, subject with rheumatoid arthritis
Protocol: A person with a diagnosis of rheumatoid arthritis was referred for Diinolylmethane (DIM) treatment due to intolerance of oral Plaquenil®. […] They had diffuse small joint pain and elevated Rheumatoid Factor and Antinuclear Antigen serum titers. […] On probing, a total of 12 bleeding sites were documented. They began taking DIM (BioResponse-DIM 150, BioResponse, Boulder, Colo.) taking 50 mg of DIM twice daily.
A person with a diagnosis of rheumatoid arthritis was referred for Diinolylmethane (DIM) treatment due to intolerance of oral Plaquenil®. […] They had diffuse small joint pain and elevated Rheumatoid Factor and Antinuclear Antigen serum titers. […] On probing, a total of 12 bleeding sites were documented. They began taking DIM (BioResponse-DIM 150, BioResponse, Boulder, Colo.) taking 50 mg of DIM twice daily. […] Subsequently they discontinued use of DIM and noted gradual return of painful swollen joints in their hands over 2 months.

[5] = tested on: mouse osteoclast-like multinucleated cells (OCLs); experiment: Pit formation assay on dentine slices; conditions: 0.5-50 micromolar, 24 h and 48 h
Source text: Osteoblasts will be obtained from the calvariae of newborn ddY mice and bone marrow cells will be obtained from the tibiae of male mice and be cocultured in aMEM (Life Technologies, Grand Island, N.Y.) containing 10% FBS, 1α,25-dihydroxyvitamin D3 (10^−8 M) (Wako Pure Chemical, Osaka, Japan) and PGE2 (10^−6 M) (Sigma) in 100-mm-diameter dishes coated with collagen gels (Nitta Gelatin, Osaka). OCLs will be formed within 6 days in culture and will be removed from the dishes by treating with 0.2% collagenase (Wako). The purity of OCLs in this fraction (crude OCL preparation) will be about 5%. To further purify the OCLs, the crude OCL preparation will be replated on culture dishes. After further culture for 8 h, osteoblasts will be removed with PBS containing 0.001% pronase E (Calbiochem, La Jolla, Calif.) and 0.02% EDTA.
OCLs preparations (15,000 cells/0.1 ml/well) will be seeded on dentine slices (4-mm diameter) which had been placed in 96-well plates. […] Pit formation by OCls will be determined after culture for 24 h and 48 h. […] The numbers of pits on the slices will be counted. To quantitate pit-forming activity of OCLs, the areas of resorption lacunae will also be measured with an image analysis system (LA-525; PIAS Co., Tokyo). The results will be expressed as the percentage of resorbed area with respect to the whole surface area of a dentine slice.

c1ccc2c(Cc3c[nH]c4ccccc34)c[nH]c2c1 [Microcrystalline DIM, 3,3′-diindolylmethane]
Percent DIM Released from Particle ([1]; 0 minutes): 0% | Percent DIM Released from Particle ([1]; 15 minutes): 55.1% | Percent DIM Released from Particle ([1]; 30 minutes): 73.6% | Percent DIM Released from Particle ([1]; 45 minutes): 78.8% | Percent DIM Released from Particle ([1]; 60 minutes): 83.5%

OCc1c[nH]c2ccccc12 [I3C, Indole-3-carbinol, reference compound]
Osteoclast Cell Number in Metaphyseal Bone ([2]; female rats): 18.3 | Osteoclast Cell Number in Metaphyseal Bone ([2]; male rats): 14.3*

O=c1c(-c2ccc(O)cc2)coc2cc(O)cc(O)c12 [Genistein, 4′,5,7-trihydroxyisoflavone]
Potency of inhibiting the function of osteoclasts relative to daidzein (rat bone osteoclasts): about 10 times | Bone mineral density ([3]; 52 mg/day, year long clinical trial): failed to show any measurable improvement | Serum and urinary indicators of ongoing bone loss ([3]; 90 mg/day, clinical trial): failed to reduce

CCN(CCO)CCCC(C)Nc1ccnc2cc(Cl)ccc12 (stereo not shown) [Plaquenil]
Tolerance (adverse effect) [4]: unacceptable dizziness

c1ccc2c(Cc3c[nH]c4ccccc34)c[nH]c2c1 [DIM, 3,3′-diindolylmethane]
Osteoclast Cell Number in Metaphyseal Bone ([2]; female rats): 14.3 | Osteoclast Cell Number in Metaphyseal Bone ([2]; male rats): 9.3* | Change in osteoclast number versus I3C treated and control animals ([2]; rats): reduction in osteoclast number | Pit formation by OCLs (osteoclast function and survival) [5]: inhibition of pit formation

CC(C)Oc1ccc2c(=O)c(-c3ccccc3)coc2c1 [Ipriflavone, 3-phenyl-7-propan-2-yloxy-chromen-4-one]
Measures of bone health ([3]; 600 mg/day, 3 years of treatment, controlled trial): no significant improvement
